The target in this assay is T1, human DβH (Homo sapiens, UniProt P09172).
T1 construct: SK-N-SH cells (ATCC HTB-11), a human neuroblastoma derived cell line, were used as a source of human DβH; host or cells: SK-N-SH cells
T1 sequence (P09172 1-617): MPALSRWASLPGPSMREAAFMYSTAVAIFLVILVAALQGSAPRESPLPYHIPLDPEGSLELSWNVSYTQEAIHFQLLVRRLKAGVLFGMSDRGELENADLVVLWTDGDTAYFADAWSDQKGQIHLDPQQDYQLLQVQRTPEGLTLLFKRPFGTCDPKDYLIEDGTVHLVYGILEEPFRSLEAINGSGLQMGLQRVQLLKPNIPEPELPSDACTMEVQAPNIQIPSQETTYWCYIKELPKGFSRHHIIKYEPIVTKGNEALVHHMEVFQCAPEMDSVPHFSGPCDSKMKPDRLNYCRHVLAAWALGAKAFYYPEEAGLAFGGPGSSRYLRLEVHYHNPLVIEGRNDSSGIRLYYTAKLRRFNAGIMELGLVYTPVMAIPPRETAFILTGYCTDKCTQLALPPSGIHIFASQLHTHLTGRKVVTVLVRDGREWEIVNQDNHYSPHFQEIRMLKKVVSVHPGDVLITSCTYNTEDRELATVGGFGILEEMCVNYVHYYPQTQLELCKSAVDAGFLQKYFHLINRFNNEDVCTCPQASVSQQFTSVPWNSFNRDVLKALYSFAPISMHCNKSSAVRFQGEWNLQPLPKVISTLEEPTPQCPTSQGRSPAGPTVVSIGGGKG
As to the kind of experiment: DβH activity (β-hydroxylation of dopamine to noradrenaline) in SK-N-SH cells. It is filed as cell-based. The conditions noted are these: for DβH activity in SK-N-SH cells, Mean ± SEM: compound 5 μM, 50 mM dopamine; for inhibition of DβH activity (in words): 5 μM, as listed in Table 1; for remaining activity at 5 µM: SK-N-SH, 0.75 h, read-out: DβH activity in SK-N-SH cells, Mean ± SEM; for IC50 values against human DβH activity (in words): concentration-dependent decrease in β-hydroxylation of dopamine; for IC50: read-out: IC50 for inhibition of DβH in SK-N-SH cells. As for the experimental part: SK-N-SH cells (ATCC HTB-11), a human neuroblastoma derived cell line, were used as a source of human DβH. SK-N-SH cells cultured in 24 well plates were preincubated for 20 min in a reaction medium containing 200 mM sodium acetate, 30 mM N-ethylmaleimide, 5 μM copper sulphate, 0.5 mg/ml catalase aqueous solution, 1 mM pargyline, 10 mM sodium fumarate and 20 mM ascorbic acid. […] During preincubation and incubation, the cells were continuously shaken and maintained at 37° C. The reaction was terminated by the addition of 0.2 M perchloric acid. The acidified samples were stored at 4° C. before injection into the high pressure liquid chromatograph for the assay of noradrenaline.

Where a name gives a salt, the structure may show the parent alone.

In the case of `COc1ccc2c(c1)C[C@@H](n1c(CCN)c[nH]c1=S)CS2.Cl` (racemic) [Compound 30, (R,S)-5-(2-aminoethyl)-1-(6-methoxythiochroman-3-yl)-1,3-droimidazole-2-thione hydrochloride], the “DβH activity in SK-N-SH cells, Mean ± SEM” value was 99.4 ± 2.8 % of control.

With `Cl.NCCc1c[nH]c(=S)n1[C@H]1CSc2ccc(O)cc2C1` (racemic) [Compound 31, (R,S)-5-(2-aminoethyl)-1-(6-hydroxythiochroman-3-yl)-1,3-dihydroimidazole-2-thione hydrochloride], the “DβH activity in SK-N-SH cells, Mean ± SEM” value was 27.3 ± 0.4 % of control.

`Cl.NCCc1c[nH]c(=S)n1[C@H]1CCc2c(F)cc(F)cc2C1` [Compound 2, (S)-5-(2-aminoethyl)-1-(5,7-difluoro-1,2,3,4-tetrahydronaphthalen-2-yl)-1,3-dihydroimidazole-2-thione hydrochloride]: the “inhibition of DβH activity (in words)” value is given as “markedly inhibit”, the remaining activity at 5 µM turned out to be 1.6 ± 0.3%, the “IC50 values against human DβH activity (in words)” value is on record as “low nM range” and the IC50 (usually the point on the concentration scale where inhibition reaches its midpoint) worked out at 60 nM.

`Cl.NCc1c[nH]c(=S)n1[C@H]1COc2c(F)cc(F)cc2C1` [Compound 3, (R)-5-aminomethyl-1-(6,8-difluorochroman-3-yl)-1,3-dihydroimidazole-2-thione hydrochloride]: the “inhibition of DβH activity (in words)” value is listed as “markedly inhibit”, the remaining activity at 5 µM is 4.1 ± 0.6%, the “IC50 values against human DβH activity (in words)” value is “low nM range” and the IC50 amounted to 91 nM.

Turning to `Cl.NCCCc1c[nH]c(=S)n1[C@H]1CCc2c(F)cc(F)cc2C1` [Compound 5, (S)-5-(3-aminopropyl)-1-(5,7-difluoro-1,2,3,4-tetrahydronaphthalen-2-yl)-1,3-dihydroimidazole-2-thione hydrochloride], the “inhibition of DβH activity (in words)” value is reported as “markedly inhibit” and the remaining activity at 5 µM was found to be 8.1 ± 0.3%.

On to `Cl.NCCc1c[nH]c(=S)n1[C@H]1COc2c(F)cccc2C1` [Compound 6, (R)-5-(2-aminoethyl)-1-(8-fluorochroman-3-yl)-1,3-dihydroimidazole-2-thione hydrochloride], for which the “inhibition of DβH activity (in words)” value is “markedly inhibit” and the remaining activity at 5 µM stood at 6.9 ± 0.6%.

For the compound `Cl.NCCc1c[nH]c(=S)n1[C@H]1COc2ccc(F)cc2C1` [Compound 7, (R)-5-(2-aminoethyl)-1-(6-fluorochroman-3-yl)-1,3-dihydroimidazole-2-thione hydrochloride], the “inhibition of DβH activity (in words)” value is “markedly inhibit” and the remaining activity at 5 µM stood at 8 ± 0.1%.

For the compound `Cl.NCCc1c[nH]c(=S)n1[C@H]1COc2cc(F)c(F)cc2C1` [Compound 8, (R)-5-(2-aminoethyl)-1-(6,7-difluorochroman-3-yl)-1,3-dihydroimidazole-2-thione hydrochloride], the “inhibition of DβH activity (in words)” value was “markedly inhibit” and the remaining activity at 5 µM came to 9.4 ± 0.7%.

`NCCc1c[nH]c(=S)n1[C@@H]1COc2c(F)cc(F)cc2C1` [Compound 9, (S)-5-(2-aminoethyl)-1-(6,8-difluorochroman-3-yl)-1,3-dihydroimidazole-2-thione hydrochloride]: the remaining activity at 5 µM stood at 50.2 ± 1.9%.

With `Cl.NCCc1c[nH]c(=S)n1[C@H]1COc2c(cc(F)c(F)c2F)C1` [Compound 10, (R)-5-(2-aminoethyl)-1-(6,7,8-trifluorochroman-3-yl)-1,3-dihydroimidazole-2-thione hydrochloride], the “inhibition of DβH activity (in words)” value is “markedly inhibit” and the remaining activity at 5 µM came to 8.2 ± 0.7%.

For `COc1cc(Cl)cc2c1OC[C@H](n1c(CCN)c[nH]c1=S)C2` [Compound 11, (R)-5-(2-aminoethyl)-1-(6-chloro-8-methoxychroman-3-yl)-1,3-dihydroimidazole-2-thione hydrochloride], the remaining activity at 5 µM stood at 36.7 ± 4.4%.

The record behind these values is patent publication US7259271B2, “Peripherally-selective inhibitors of dopamine-β-hydroxylase and method of their preparation” (Portela & C.A., S.A., priority 2002, dated 2007).
